Each block holds one molecule with its values, some of them ahead of it.
Legend:
[1] = Supersaturation / spontaneous crystallisation in fermentation solution (heat flow calorimeter, turbidity sensor; MethB); type: physicochemical
Experimental: Within the temperature range of 44° C. to 52° C. the solubility of riboflavin dihydrate and within the temperature range of 44° C. to 59° C. the spontaneous crystallization of riboflavin were investigated. […] In another experiment riboflavin was dissolved at a concentration of 0.7 g l^−1 and at a temperature of 69° C.
The experiments were conducted in a heat flow calorimeter. The process of […] by heating and crystallisation by cooling was monitored by a turbidity sensor. 36 mg of crystals of riboflavin anhydrate I or 60 mg of the crystalline form of riboflavin monohydrate or 120 mg of crystals of riboflavin dihydrate, respectively, were suspended in the fermentation solution and heated to 80° C. at a rate of 0.1° C. per minute. The temperature was held during 60 min. Then the system was cooled again to 20° C. at a rate of 0.1° C./min.
Therefore, another method (MethB) was applied to determine the supersaturation at 39° C.: 420 mg of crystals of riboflavin tetrahydrate were suspended and fully dissolved by heating to 69° C. The concentration of riboflavin was 0.6 mg ml^−1. After cooling again to 39° C., the temperature was kept constant.

[2] = not given; remark: listed apart in the source
[3] = relative humidity of 95%, samples prepared by method of U.S. Pat. No. 2,603,633
Source text: A process for the preparation of riboflavin tetrahydrate is described in U.S. Pat. No. 2,603,633. The process basically uses a solvent to rapidly precipitate the riboflavin in order to obtain the desired tetrahydrate “type C” (modification).

[4] = Soluble fraction of riboflavin in induced and uninduced cultures; type: physicochemical; conditions: fermentation culture induced with seed crystals
Experimental: 500 mg of crystals of riboflavin monohydrate were sterilized at 140° C. for 50 min in an oven, suspended in 5 ml ethanol for 10-200 min, preferably 20-40 min and prior induction 10 ml sterile H2O were added for better handling of the liquid. The suspension was added to the bioreactor after 6 h by a sterile bottle with needle. Crystals of riboflavin dihydrate were formed and in the culture remained monoseptic. From these experiments, it can be concluded that it is possible to direct the crystal modification to riboflavin dihydrate.
In case of the induced cultures this phenomenon is not observed. The solubility of riboflavin (approximately 0.4 gl^−1) is not exceeded. It is controlled by x-ray diffraction whether the crystalline form of the crystals changes during the sterilization procedure.

partial transformation into riboflavin dihydrate (stirred slurry only containing riboflavin anhydrate I, 4° C., in 56 days): 80%
position of the supersaturation line ([1]; 39° C., estimated): above 0.6 g l^−1
Compound: Cc1cc2nc3c(=O)[nH]c(=O)nc-3n(C[C@H](O)[C@H](O)[C@H](O)CO)c2cc1C [riboflavin anhydrate I, reference compound]

range of relative humidity in which the crystalline form was identified ([2]; second sample (type C), DVS): 0% < RH % RH
Compound: Cc1cc2nc3c(=O)[nH]c(=O)nc-3n(C[C@H](O)[C@H](O)[C@H](O)CO)c2cc1C [riboflavin anhydrate III]

range of relative humidity at which the crystalline form appeared ([2]; sample modification B/C, DVS with parallel X-ray diffraction, ambient temperature): 0% RH
Compound: Cc1cc2nc3c(=O)[nH]c(=O)nc-3n(C[C@H](O)[C@H](O)[C@H](O)CO)c2cc1C [riboflavin anhydrate II]

water contained in the dihydrate structure ([2]; relative humidity of 20%, decreasing RH): about 1.3 mol water per mol riboflavin
water uptake ([2]; relative humidity of about 92%, increasing RH, ambient temperature, sample B/C): 9.57 wt.-%
time for complete transformation into riboflavin anhydrate I (80° C.): ≤ 20 s
partial transformation into riboflavin anhydrate I (stirred slurry of pure riboflavin dihydrate, 23° C., in 11 days, Raman spectroscopy): 80%
Compound: Cc1cc2nc3c(=O)[nH]c(=O)nc-3n(C[C@H](O)[C@H](O)[C@H](O)CO)c2cc1C [riboflavin dihydrate]

time to transform into riboflavin dihydrate [3]: about 100 min
time until crystallisation started ([1]; 0.6 mg ml^−1 riboflavin, dissolved at 69° C., cooled to and kept at 39° C.): 3 h
temperature of spontaneous crystallisation ([1]; 0.7 mg ml^−1, dissolved at 69° C., cooling): 46 °C
Compound: Cc1cc2nc3c(=O)[nH]c(=O)nc-3n(C[C@H](O)[C@H](O)[C@H](O)CO)c2cc1C.O.O.O.O [riboflavin tetrahydrate]

supersaturation line ([1]; 39° C., MethB, concluded from the experiments): below 0.6 mg ml^−1
solubility of riboflavin [4]: approximately 0.4 gl^−1
Compound: Cc1cc2nc3c(=O)[nH]c(=O)nc-3n(C[C@H](O)[C@H](O)[C@H](O)CO)c2cc1C [riboflavin]

Reference: patent US7670800B2, “Process for the purification of riboflavin” (DSM IP Assets B.V., priority 2003, dated 2010)
